Legend:
Type in all cases: in vivo
[1] = system: Echinochloa crus-galli var. formosensis; test: Test Example 1: herbicidal effect test by soil application in paddy rice; conditions: 120 g active ingredient per 10 ares, applied immediately after sowing, flooded pots, 14 days after application; for pest or weed control at 1200 g/ha: Echinochloa crus-galli, soil, 336 h, read-out: weed inhibition rate
Outline: (§1)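 Paddy soil in Wagner pots (1/10,000 acre), fertilized and puddled; 30 seeds per species sown at 0–1 cm, flooded to ~3 cm, greenhouse. Water-diluted emulsifiable concentrate dropped onto flooded pots right after sowing at 120 g active ingredient per 10 ares.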

Scirpus juncoides [2] = test: as above; conditions: 120 g active ingredient per 10 ares, applied immediately after sowing, flooded pots, 14 days after application; for pest or weed control at 1200 g/ha: Schoenoplectiella juncoides, soil, 336 h, read-out: weed inhibition rate
Outline: as §1

[3] = system: Echinochloa crus-galli var. formosensis; test: Test Example 2: herbicidal effect test by application during growth period of paddy rice; conditions: 120 g per 10 ares, applied seven days after sowing, flooded pots, 14 days after application; for inhibition at 1200 g/ha: Echinochloa crus-galli, read-out: weed inhibition rate
Outline: (§2)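 Herbicidal effect was scored 14 days after treatment, in duplicate per concentration. Weeds sown 0–1 cm deep in puddled, fertilized paddy soil under about 3 cm of standing water received a water-diluted emulsifiable concentrate by dropper 7 days post-sowing, at 120 g a.i. per 10 ares.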

Scirpus juncoides [4] = test: as above; conditions: 120 g per 10 ares, applied seven days after sowing, flooded pots, 14 days after application; for inhibition at 1200 g/ha: Schoenoplectiella juncoides, read-out: weed inhibition rate
Outline: as §2

Digitaria ciliaris [5] = test: Test Example 3: herbicidal effect test by soil application in upland field; conditions: 120 g per 10 ares, sprayed one day after sowing, 14 days after application; for inhibition at 1200 g/ha: Digitaria ciliaris, read-out: weed inhibition rate
Outline: (§3)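 Pre-emergence test: seeds mixed into top 1 cm of alluvial loam upland soil in pots; emulsifiable concentrate diluted in water sprayed on soil one day after sowing at 100 L/10 a, 120 g a.i./10 a. Weed inhibition rate (%) scored at 14 days, in duplicate.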

Echinochloa crus-galli [6] = test: as above; conditions: 120 g per 10 ares, sprayed one day after sowing, 14 days after application; for inhibition at 1200 g/ha: Echinochloa crus-galli, read-out: weed inhibition rate
Outline: as §3

Digitaria ciliaris [7] = test: Test Example 4: herbicidal effect test by stem and leaf treatment in upland field; conditions: 120 g per 10 ares, sprayed seven days after sowing, upland soil, 14 days after application; for inhibition at 1200 g/ha: Digitaria ciliaris, read-out: weed inhibition rate
Echinochloa crus-galli [8] = test: as above; conditions: 120 g per 10 ares, sprayed seven days after sowing, upland soil, 14 days after application; for inhibition at 1200 g/ha: Echinochloa crus-galli, read-out: weed inhibition rate
[9] = system: Echinochloa crus-galli var. formosensis; test: Test Example 5: herbicidal effect test by soil application in paddy rice (low dose); conditions: 7.5 g per 10 ares, applied immediately after sowing, flooded pots, 14 days after application; for inhibition at 75 g/ha: Echinochloa crus-galli, soil, 336 h, read-out: weed inhibition rate
Outline: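 Dose of 7.5 g a.i. per 10 ares, applied by dropper as diluted emulsifiable concentrate to flooded (~3 cm) paddy pots immediately after sowing seeds at 0–1 cm. Kept in a glass greenhouse; duplicate pots rated at 14 days post-application.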

[10] = system: Echinochloa crus-galli var. formosensis; test: Test Example 6: herbicidal effect test by application during growth period of paddy rice (low dose); conditions: 7.5 g per 10 ares, applied seven days after sowing, flooded pots, 14 days after application; for inhibition at 75 g/ha: Echinochloa crus-galli, read-out: weed inhibition rate
Outline: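 Low-dose water application, 7.5 g a.i. per 10 ares, given by dropper into flooded pots (about 3 cm depth) 7 days after sowing of 30 weed seeds each at 0–1 cm. Evaluation of inhibition (%) took place 14 days later, duplicate per rate.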

Digitaria ciliaris [11] = test: Test Example 7: herbicidal effect test by soil application in upland field (low dose); conditions: 7.5 g per 10 ares, sprayed one day after sowing, 14 days after application; for inhibition at 75 g/ha: Digitaria ciliaris, read-out: weed inhibition rate
Outline: (§4)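 Pre-emergence soil treatment: 7.5 g a.i. per 10 a applied as water-diluted emulsifiable concentrate (100 L/10 a) to soil surface one day post-sowing in alluvial loam. Inhibition (%) assessed at 14 days, duplicate pots per concentration.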

Echinochloa crus-galli [12] = test: as above; conditions: 7.5 g per 10 ares, sprayed one day after sowing, 14 days after application; for inhibition at 75 g/ha: Echinochloa crus-galli, read-out: weed inhibition rate
Outline: as §4

Digitaria ciliaris [13] = test: Test Example 8: herbicidal effect test by stem and leaf treatment in upland field (low dose); conditions: 7.5 g per 10 ares, sprayed seven days after sowing, upland soil, 14 days after application; for inhibition at 75 g/ha: Digitaria ciliaris, read-out: weed inhibition rate
Echinochloa crus-galli [14] = test: as above; conditions: 7.5 g per 10 ares, sprayed seven days after sowing, upland soil, 14 days after application; for inhibition at 75 g/ha: Echinochloa crus-galli, read-out: weed inhibition rate

CC(C)[C@]12C[C@@H](OCc3ccccc3Br)[C@](C)(C[C@@H]1I)O2 [1-759, (1R,2S,4S,5R)-5-[(2-bromophenyl)methoxy]-2-iodo-1-isopropyl-4-methyl-7-oxabicyclo[2.2.1]heptane]
≥ 80%: pest or weed control at 1200 g/ha [1] | pest or weed control at 1200 g/ha (Scirpus juncoides [2]) | inhibition at 1200 g/ha [3] | inhibition at 1200 g/ha (Scirpus juncoides [4]) | inhibition at 1200 g/ha (Digitaria ciliaris [5]) | inhibition at 1200 g/ha (Echinochloa crus-galli [6]) | inhibition at 1200 g/ha (Digitaria ciliaris [7]) | inhibition at 1200 g/ha (Echinochloa crus-galli [8]) | inhibition at 75 g/ha [9] | inhibition at 75 g/ha [10] | inhibition at 75 g/ha (Digitaria ciliaris [11]) | inhibition at 75 g/ha (Echinochloa crus-galli [12]) | inhibition at 75 g/ha (Digitaria ciliaris [13]) | inhibition at 75 g/ha (Echinochloa crus-galli [14])

CC(C)[C@]12C[C@@H](OCc3ccccc3I)[C@](C)(C[C@@H]1I)O2 [1-762, (1R,2S,4S,5R)-2-iodo-5-[(2-iodophenyl)methoxy]-1-isopropyl-4-methyl-7-oxabicyclo[2.2.1]heptane]
≥ 80%: pest or weed control at 1200 g/ha [1] | pest or weed control at 1200 g/ha (Scirpus juncoides [2]) | inhibition at 1200 g/ha [3] | inhibition at 1200 g/ha (Scirpus juncoides [4]) | inhibition at 1200 g/ha (Digitaria ciliaris [5]) | inhibition at 1200 g/ha (Echinochloa crus-galli [6]) | inhibition at 1200 g/ha (Digitaria ciliaris [7]) | inhibition at 1200 g/ha (Echinochloa crus-galli [8]) | inhibition at 75 g/ha [9] | inhibition at 75 g/ha [10] | inhibition at 75 g/ha (Digitaria ciliaris [11]) | inhibition at 75 g/ha (Echinochloa crus-galli [12]) | inhibition at 75 g/ha (Digitaria ciliaris [13]) | inhibition at 75 g/ha (Echinochloa crus-galli [14])

CC(C)[C@]12C[C@@H](OCc3ccccc3C#N)[C@](C)(C[C@@H]1I)O2 [1-768, 2-[[(l S,2R,4R,5S)-5-iodo-4-isopropyl-l-methyl-7-oxabicyclo[2.2.1]heptan-2-yl]oxymethyl]benzonitrile]
≥ 80%: weed inhibition rate [1] | weed inhibition rate (Scirpus juncoides [2]) | weed inhibition rate [3] | weed inhibition rate (Scirpus juncoides [4]) | weed inhibition rate (Digitaria ciliaris [5]) | weed inhibition rate (Echinochloa crus-galli [6]) | weed inhibition rate (Digitaria ciliaris [7]) | weed inhibition rate (Echinochloa crus-galli [8]) | weed inhibition rate [9] | weed inhibition rate [10] | weed inhibition rate (Digitaria ciliaris [11]) | weed inhibition rate (Echinochloa crus-galli [12]) | weed inhibition rate (Digitaria ciliaris [13]) | weed inhibition rate (Echinochloa crus-galli [14])

Cc1cccc(C)c1CO[C@@H]1C[C@]2(C(C)C)O[C@@]1(C)C[C@@H]2I [1-777, (1R,2S,4S,5R)-5-[(2,6-dimethylphenyl)methoxy]-2-iodo-1-isopropyl-4-methyl-7-oxabicyclo[2.2.1]heptane]
≥ 80%: pest or weed control at 1200 g/ha [1] | pest or weed control at 1200 g/ha (Scirpus juncoides [2]) | inhibition at 1200 g/ha [3] | inhibition at 1200 g/ha (Scirpus juncoides [4]) | inhibition at 1200 g/ha (Digitaria ciliaris [5]) | inhibition at 1200 g/ha (Echinochloa crus-galli [6]) | inhibition at 1200 g/ha (Digitaria ciliaris [7]) | inhibition at 1200 g/ha (Echinochloa crus-galli [8]) | inhibition at 75 g/ha [9] | inhibition at 75 g/ha [10] | inhibition at 75 g/ha (Digitaria ciliaris [11]) | inhibition at 75 g/ha (Echinochloa crus-galli [12]) | inhibition at 75 g/ha (Digitaria ciliaris [13]) | inhibition at 75 g/ha (Echinochloa crus-galli [14])

CC(C)[C@]12C[C@@H](OCc3c(F)cccc3F)[C@](C)(C[C@@H]1I)O2 [1-778, (1R,2S,4S,5R)-5-[(2,6-difluorophenyl)methoxy]-2-iodo-1-isopropyl-4-methyl-7-oxabicyclo[2.2.1]heptane]
≥ 80%: pest or weed control at 1200 g/ha [1] | pest or weed control at 1200 g/ha (Scirpus juncoides [2]) | inhibition at 1200 g/ha [3] | inhibition at 1200 g/ha (Scirpus juncoides [4]) | inhibition at 1200 g/ha (Digitaria ciliaris [5]) | inhibition at 1200 g/ha (Echinochloa crus-galli [6]) | inhibition at 1200 g/ha (Digitaria ciliaris [7]) | inhibition at 1200 g/ha (Echinochloa crus-galli [8]) | inhibition at 75 g/ha [9] | inhibition at 75 g/ha [10] | inhibition at 75 g/ha (Digitaria ciliaris [11]) | inhibition at 75 g/ha (Echinochloa crus-galli [12]) | inhibition at 75 g/ha (Digitaria ciliaris [13]) | inhibition at 75 g/ha (Echinochloa crus-galli [14])

CC(C)[C@]12C[C@@H](OCc3c(F)cccc3Cl)[C@](C)(C[C@@H]1I)O2 [1-780, (1R,2S,4S,5R)-5-[(2-chloro-6-fluoro-phenyl)methoxy]-2-iodo-1-isopropyl-4-methyl-7-oxabicyclo[2.2.1]heptane]
≥ 80%: pest or weed control at 1200 g/ha [1] | pest or weed control at 1200 g/ha (Scirpus juncoides [2]) | inhibition at 1200 g/ha [3] | inhibition at 1200 g/ha (Scirpus juncoides [4]) | inhibition at 1200 g/ha (Digitaria ciliaris [5]) | inhibition at 1200 g/ha (Echinochloa crus-galli [6]) | inhibition at 1200 g/ha (Digitaria ciliaris [7]) | inhibition at 1200 g/ha (Echinochloa crus-galli [8]) | inhibition at 75 g/ha [9] | inhibition at 75 g/ha [10] | inhibition at 75 g/ha (Digitaria ciliaris [11]) | inhibition at 75 g/ha (Echinochloa crus-galli [12]) | inhibition at 75 g/ha (Digitaria ciliaris [13]) | inhibition at 75 g/ha (Echinochloa crus-galli [14])

CC(C)[C@]12C[C@@H](OCc3ccccn3)[C@](C)(C[C@@H]1I)O2 [1-785, 2-[[(18,2R,4R,58)-5-iodo-4-isopropyl-1-methyl-7-oxabicyclo[2.2.1]heptan-2-yl]oxymethyl]pyridine]
≥ 80%: weed inhibition rate [1] | weed inhibition rate (Scirpus juncoides [2]) | weed inhibition rate [3] | weed inhibition rate (Scirpus juncoides [4]) | weed inhibition rate (Digitaria ciliaris [5]) | weed inhibition rate (Echinochloa crus-galli [6]) | weed inhibition rate (Digitaria ciliaris [7]) | weed inhibition rate (Echinochloa crus-galli [8]) | weed inhibition rate [9] | weed inhibition rate [10] | weed inhibition rate (Digitaria ciliaris [11]) | weed inhibition rate (Echinochloa crus-galli [12]) | weed inhibition rate (Digitaria ciliaris [13]) | weed inhibition rate (Echinochloa crus-galli [14])

CC(C)[C@]12C[C@@H](OCc3cccs3)[C@](C)(C[C@@H]1I)O2 [1-788, (1R,2S,4S,5R)-2-iodo-1-isopropyl-4-methyl-5-(2-thienylmethoxy)-7-oxabicyclo[2.2.1]heptane]
≥ 80%: pest or weed control at 1200 g/ha [1] | pest or weed control at 1200 g/ha (Scirpus juncoides [2]) | inhibition at 1200 g/ha [3] | inhibition at 1200 g/ha (Scirpus juncoides [4]) | inhibition at 1200 g/ha (Digitaria ciliaris [5]) | inhibition at 1200 g/ha (Echinochloa crus-galli [6]) | inhibition at 1200 g/ha (Digitaria ciliaris [7]) | inhibition at 1200 g/ha (Echinochloa crus-galli [8]) | inhibition at 75 g/ha [9] | inhibition at 75 g/ha [10] | inhibition at 75 g/ha (Digitaria ciliaris [11]) | inhibition at 75 g/ha (Echinochloa crus-galli [12]) | inhibition at 75 g/ha (Digitaria ciliaris [13]) | inhibition at 75 g/ha (Echinochloa crus-galli [14])

CC(C)[C@]12C[C@@H](OCc3ccsc3)[C@](C)(C[C@@H]1I)O2 [1-789, (1R,2S,4S,5R)-2-iodo-1-isopropyl-4-methyl-5-(3-thienylmethoxy)-7-oxabicyclo[2.2.1]heptane]
≥ 80%: pest or weed control at 1200 g/ha [1] | pest or weed control at 1200 g/ha (Scirpus juncoides [2]) | inhibition at 1200 g/ha [3] | inhibition at 1200 g/ha (Scirpus juncoides [4]) | inhibition at 1200 g/ha (Digitaria ciliaris [5]) | inhibition at 1200 g/ha (Echinochloa crus-galli [6]) | inhibition at 1200 g/ha (Digitaria ciliaris [7]) | inhibition at 1200 g/ha (Echinochloa crus-galli [8]) | inhibition at 75 g/ha [9] | inhibition at 75 g/ha [10] | inhibition at 75 g/ha (Digitaria ciliaris [11]) | inhibition at 75 g/ha (Echinochloa crus-galli [12]) | inhibition at 75 g/ha (Digitaria ciliaris [13]) | inhibition at 75 g/ha (Echinochloa crus-galli [14])

— patent EP4707280A1, “1,4-CINEOLE DERIVATIVE AND INTERMEDIATE THEREOF, HERBICIDE CONTAINING SAID DERIVATIVE AS ACTIVE INGREDIENT, METHOD FOR USING HERBICIDE, AND METHOD FOR PREPARING AGROCHEMICAL COMPOSITION” (HOKKO CHEMICAL INDUSTRY CO., LTD., priority 2023, dated 2024)
